Test results published in US8388986B2, “Use of cationic surfactants in cosmetic preparations” (priority 2001, dated 2013).

Legend:
Yeast = experiment: preservative efficacy (Antimicrobial Effectiveness Testing USP 24th Edition) in cosmetic formulations; type: cell-based, Candida albicans ATCC 10231; details: 0.20 g of LAE
Method: (§1) This assay consists of the contamination of the protecting formulations with an inoculum mixture of 10^8 cfu/mL concentration, for each of the microorganisms, and the determination of the number of viable cells in the time. This inoculum mixture is composed of the following microorganisms:
(§2) The cosmetic composition to be analysed is divided into sterile containers with 50 g of product for each flask. Each container is inoculated with 0.5 mL of inoculum (10^8 cfu/mL). The target concentration is 10^6 cfu/mL, approximately. All the containers are kept at a temperature between 20-25° C. and are protected from light.
(§3) The level of the microbial contamination is checked at 0 hours, 7 days, 14 days and 28 days. The number of colonies is evaluated by dilution in buffer peptone with the appropriate neutraliser agent of the preservative. The culture media used for counting the microorganisms are: Soya triptone (35-37° C., 48 hours) for the determination of bacteria; Sabouraud agar with chloramphenicol for fungi and yeast (25° C., 3-5 days).
(§4) According to Antimicrobial Effectiveness Testing USP 24th Edition, 1999 (pp. 1809-1811), an antimicrobial preservative is considered to be effective in topically used products made with aqueous bases or vehicles, non-sterile nasal products and emulsions, including those applied to mucous membranes, if: • Not less than 2.0 logarithm reduction from the initial calculated bacteria's count is reached at 14 days and no increase from the 14 days' count at 28 days is detected; and • No increase from the initial calculated count of yeast and moulds is observed.

[1] = test system: Salmonella typhimurium ATCC 16028; experiment: minimum inhibitory concentration; type: cell-based; details: Gram − Bacteria
[2] = test system: Leuconostoc mesenteroides CETC 912; experiment: minimum inhibitory concentration; type: cell-based; details: Gram + Bacteria
Fungi = experiment: preservative efficacy (Antimicrobial Effectiveness Testing USP 24th Edition) in cosmetic formulations; type: cell-based, Aspergillus niger ATCC 16404; details: 0.20 g of LAE
Method: as §1, §2, §3, §4

[3] = test system: Arthrobacter oxydans ATCC 8010; experiment: minimum inhibitory concentration; type: cell-based; details: Gram + Bacteria
[4] = test system: Chaetonium globosum ATCC 6205; experiment: minimum inhibitory concentration; type: cell-based; details: Fungi
[5] = test system: Staphylococcus aureus ATCC 6538; experiment: minimum inhibitory concentration; type: cell-based; details: Gram + Bacteria
[6] = test system: Mycobacterium phlei ATCC 41423; experiment: minimum inhibitory concentration; type: cell-based; details: Gram + Bacteria
[7] = test system: Micrococcus luteus ATCC 9631; experiment: minimum inhibitory concentration; type: cell-based; details: Gram + Bacteria
[8] = Example 14, oil-in-water emulsion with non-ionic surfactants (sun protector, cetyl dimethicone copolyol), Initial
[9] = Example 15, emulsion for hands care, 7 days
[10] = Example 15, emulsion for hands care, 14 days
[11] = Example 15, emulsion for hands care, Initial

CCCCCCCCCCCC(=O)N[C@@H](CCCN=C(N)N)C(=O)OCC.Cl [LAE, ethyl ester of the lauramide of the arginine monohydrochloride]
viable count With LAE (Yeast; [8]): 7.9 · 10^4 cfu/mL
viable count With LAE (Yeast; [9]): 7.2 · 10^2 cfu/mL
viable count With LAE (Yeast; [10]): <9.9 · 10^1 cfu/mL
viable count With LAE (Yeast; [11]): 8.6 · 10^4 cfu/mL
M.I.C. [1]: 32 ppm
M.I.C. [2]: 32 ppm
viable count With LAE (Fungi; Example 1, oil-in-water emulsion with non-ionic surfactant, 7 days): <9.9 · 10^1 cfu/mL
viable count With LAE (Fungi; Example 1, oil-in-water emulsion with non-ionic surfactant, 14 days): <9.9 · 10^1 cfu/mL
viable count With LAE (Fungi; Example 1, oil-in-water emulsion with non-ionic surfactant, Initial): 1.7 · 10^4 cfu/mL
viable count With LAE (Fungi; Example 2, oil-in-water emulsion with an ionic emulsifier, 7 days): <9.9 · 10^1 cfu/mL
viable count With LAE (Fungi; Example 2, oil-in-water emulsion with an ionic emulsifier, 14 days): <9.9 · 10^1 cfu/mL
viable count With LAE (Fungi; Example 2, oil-in-water emulsion with an ionic emulsifier, Initial): 1.4 · 10^4 cfu/mL
viable count With LAE (Fungi; Example 3, water in oil emulsion with non-ionic emulsifiers, 7 days): <9.9 · 10^1 cfu/mL
viable count With LAE (Fungi; Example 3, water in oil emulsion with non-ionic emulsifiers, 14 days): <9.9 · 10^1 cfu/mL
viable count With LAE (Fungi; Example 3, water in oil emulsion with non-ionic emulsifiers, Initial): 1.0 · 10^4 cfu/mL
viable count With LAE (Fungi; Example 4, aqueous solution with a surfactants' mixture (bath gels, disodium cocoamfoacetate), 7 days): 2.7 · 10^2 cfu/mL
viable count With LAE (Fungi; Example 4, aqueous solution with a surfactants' mixture (bath gels, disodium cocoamfoacetate), 14 days): <9.9 · 10^1 cfu/mL
viable count With LAE (Fungi; Example 4, aqueous solution with a surfactants' mixture (bath gels, disodium cocoamfoacetate), Initial): 1.9 · 10^4 cfu/mL
viable count With LAE (Fungi; Example 5, aqueous solution with a surfactants' mixture (bath gels, disodium lauryl sulfosuccinate), 7 days): <9.9 · 10^1 cfu/mL
viable count With LAE (Fungi; Example 5, aqueous solution with a surfactants' mixture (bath gels, disodium lauryl sulfosuccinate), 14 days): <9.9 · 10^1 cfu/mL
viable count With LAE (Fungi; Example 5, aqueous solution with a surfactants' mixture (bath gels, disodium lauryl sulfosuccinate), Initial): 1.4 · 10^4 cfu/mL
viable count With LAE (Fungi; Example 6, hydroalcoholic gel (after-shaving lotions), 7 days): 4.1 · 10^2 cfu/mL
viable count With LAE (Fungi; Example 6, hydroalcoholic gel (after-shaving lotions), 14 days): <9.9 · 10^1 cfu/mL
viable count With LAE (Fungi; Example 6, hydroalcoholic gel (after-shaving lotions), Initial): 9.1 · 10^4 cfu/mL
viable count With LAE (Fungi; Example 7, facial tonic, 7 days): 1.3 · 10^2 cfu/mL
viable count With LAE (Fungi; Example 7, facial tonic, 14 days): <9.9 · 10^1 cfu/mL
viable count With LAE (Fungi; Example 7, facial tonic, Initial): 2.1 · 10^4 cfu/mL
viable count With LAE (Fungi; Example 8, mask-up cleaner, 7 days): 3.5 · 10^2 cfu/mL
viable count With LAE (Fungi; Example 8, mask-up cleaner, 14 days): <9.9 · 10^1 cfu/mL
viable count With LAE (Fungi; Example 8, mask-up cleaner, Initial): 7.6 · 10^4 cfu/mL
viable count With LAE (Fungi; Example 9, fluid oil-in-water emulsion with non-ionic surfactants (body oil), 7 days): 1.4 · 10^2 cfu/mL
viable count With LAE (Fungi; Example 9, fluid oil-in-water emulsion with non-ionic surfactants (body oil), 14 days): <9.9 · 10^1 cfu/mL
viable count With LAE (Fungi; Example 9, fluid oil-in-water emulsion with non-ionic surfactants (body oil), Initial): 7.6 · 10^4 cfu/mL
viable count With LAE (Fungi; Example 10, toothpaste formulation, 7 days): 1.6 · 10^2 cfu/mL
viable count With LAE (Fungi; Example 10, toothpaste formulation, 14 days): <9.9 · 10^1 cfu/mL
viable count With LAE (Fungi; Example 10, toothpaste formulation, Initial): 5.6 · 10^4 cfu/mL
viable count With LAE (Fungi; Example 11, aqueous solution with surfactants (shampoos), 7 days): 1.1 · 10^2 cfu/mL
viable count With LAE (Fungi; Example 11, aqueous solution with surfactants (shampoos), 14 days): <9.9 · 10^1 cfu/mL
viable count With LAE (Fungi; Example 11, aqueous solution with surfactants (shampoos), Initial): 9.6 · 10^4 cfu/mL
viable count With LAE (Fungi; Example 12, oil-in-water emulsion with non-ionic surfactants (face cream), 7 days): 8.7 · 10^2 cfu/mL
viable count With LAE (Fungi; Example 12, oil-in-water emulsion with non-ionic surfactants (face cream), 14 days): <9.9 · 10^1 cfu/mL
viable count With LAE (Fungi; Example 12, oil-in-water emulsion with non-ionic surfactants (face cream), Initial): 1.7 · 10^4 cfu/mL
viable count With LAE (Fungi; Example 13, oil-in-water emulsion with non-ionic surfactants (sun protector, polysorbate 60), 7 days): 2.7 · 10^2 cfu/mL
viable count With LAE (Fungi; Example 13, oil-in-water emulsion with non-ionic surfactants (sun protector, polysorbate 60), 14 days): <9.9 · 10^1 cfu/mL
viable count With LAE (Fungi; Example 13, oil-in-water emulsion with non-ionic surfactants (sun protector, polysorbate 60), Initial): 4.9 · 10^4 cfu/mL
viable count With LAE (Fungi; Example 14, oil-in-water emulsion with non-ionic surfactants (sun protector, cetyl dimethicone copolyol), 7 days): 6.7 · 10^2 cfu/mL
viable count With LAE (Fungi; Example 14, oil-in-water emulsion with non-ionic surfactants (sun protector, cetyl dimethicone copolyol), 14 days): <9.9 · 10^1 cfu/mL
viable count With LAE (Fungi; [8]): 5.3 · 10^4 cfu/mL
viable count With LAE (Fungi; [9]): 8.7 · 10^2 cfu/mL
viable count With LAE (Fungi; [10]): <9.9 · 10^1 cfu/mL
viable count With LAE (Fungi; [11]): 5.8 · 10^4 cfu/mL
M.I.C. [3]: 64 ppm
M.I.C. [4]: 16 ppm
M.I.C. [5]: 32 ppm
M.I.C. [6]: 2 ppm
M.I.C. [7]: 128 ppm
